These results are taken from publication PMC6268357, “Synthesis and Biological Evaluation of New Ligustrazine Derivatives as Anti-Tumor Agents” (Molecules, 2012).

Data set [1] deals with Bel-7402 human cancer cell line. The data set is described as follows: MTT anti-proliferation assay, Bel-7402. The data set is classed as cell-based. The conditions noted are these: Homo sapiens, Bel-7402; MTT, 96 h exposure; maximal tested concentration 10.0 ig/mL; read-out: IC50 Bel 7402. How it is done:
(§1) The cytotoxicities of these compounds were tested on five cancer cell lines by the standard MTT assay. […] The growing tumor cells at a density 10^4 cells/mL were exposed to various concentrations of the tested drugs and incubated in a 96-well microtiter plate for 96 h (37 °C, 5% CO2). After MTT solution (20 μL, 5 mg/mL) was added to each well, the plate was incubated for a further 4 h. Then the media was removed. Formazan crystals were dissolved with DMSO (150 μL). After mixing well, the absorbance was quantified at 570 nm with a BIORAD 550 spectrophotometer. Wells containing no drugs were used as blanks. […] Tumor cell growth inhibitory rate was calculated in the following equation (1): [drawing 3] (1)
For orientation: Tetrazolium assays rely on reduction of a dye to a coloured formazan, in cell work by metabolically active cells.

Data set [2] deals with A-549 human cancer cell line. Put plainly: MTT anti-proliferation assay, A549. The class given is cell-based. The settings on record: Homo sapiens, A549; MTT, 96 h exposure; maximal tested concentration 10.0 ig/mL; read-out: IC50 A549. Here is the method: as §1
Data set [3] concerns HCT-8 human cancer cell line. The data set is described as follows: MTT anti-proliferation assay, HCT-8. The class given is cell-based. The settings on record: Homo sapiens, HCT-8; MTT, 96 h exposure; maximal tested concentration 10.0 ig/mL; read-out: IC50 HCT-8. Here is the method: as §1
Data set [4] concerns BGC-823 human cancer cell line. Put plainly: MTT anti-proliferation assay, BGC-823. The data set is classed as cell-based. The conditions noted are these: Homo sapiens, BGC-823; MTT, 96 h exposure; maximal tested concentration 10.0 ig/mL; read-out: IC50 BGC-823. Here is the method:
as §1

Data set [5] deals with A2780 human cancer cell line. The data set is described as follows: MTT anti-proliferation assay, A2780. The data set is classed as cell-based. The conditions noted are these: Homo sapiens, A2780; MTT, 96 h exposure; maximal tested concentration 10.0 ig/mL; read-out: IC50 A2780. How it is done: as §1
The test system of data set [6] is chick chorioallantoic membrane (CAM). The data set is described as follows: Chick chorioallantoic membrane (CAM) angiogenesis assay. The data set is classed as in vivo, White Leghorn chicken. The conditions noted are these: for Number of microvessels on CAM, treatment (mean ± s): n = 6, implanted day 7, read day 11, microvessels 1 to 100 μm in diameter. How it is done: Fertilized White Leghorn chicken eggs, provided by the Chinese Academy of Agricultural Sciences, were placed in an incubator as soon as embryogenesis started and were kept under constant humidity of 65% at 37 °C. On day 7, a square window was opened on the shell and physiological saline (0.1 mL) was injected in to detach the shell membrane. Then gelatin sponges carrying the TMP stimulator derivatives at 10 μg/egg and 40 μg/egg were implanted, respectively. The control group was treated with physiological saline. The windows were sealed with medical adhesive tape and the incubation went on till the experiment day. The above steps were performed under sterile conditions. On the 11th day, the tapes were removed and the entire CAM was detached after tissue fixation with methanol/acetone (1:1, v/v). Then we used computer-assisted image tracking to obtain absolute values for the number of microvessels which were 1 to 100 μm in diameter. Data were analyzed using the t-test option of the of Statistics Analysis System, the values were expressed as mean ± s of 6 observations and P < 0.05 was considered significant.

The nature of data set [7]: Acute toxicity by oral administration in mice. The data set is classed as in vivo. The conditions noted are these: both sexes, Kunming, mouse, in vivo, 3 g/kg, oral administration. How it is done: (§2) Kunming mice (Beijing Vital River Laboratory Animal Technology Company Limited, China) of both sexes, weighing 18–22 g, were divided into […] matched in weight and size. The mice were placed in cages and kept under standard environmental conditions with a standard rodent diet and water ad libitum under a 12 h light-dark cycle. They were deprived of food for 24 h but allowed free access to tap water throughout the experiments. This research was carried out in accordance with the “Regulation for the Administration of Affairs Concerning Experimental Animals” (State Council of China, 1988).
(§3) The maximum suspended dose (75 mg/mL) of 5 was prepared in bean oil solution, then one group of 20 mice of both sexes were administered the maximum tolerated dose (0.4 mL/10 g) by oral administration. The other 20 mice, the control group, were gave bean oil (0.4 mL/10 g) via gavage.The general behavior of the mice was observed continuously for 1 h after the treatment and then intermittently for 4 h, and thereafter over a period of 24 h. The mice were further observed for up to 14 days following treatment for any signs of toxicity and deaths, and the latency of death. Behavioral, toxic effects and mortality response were recorded.

For another data set, the system named is Kunming mice. The data set is described as follows: Acute toxicity by oral administration in mice. The conditions noted are these: oral (gavage) 3 g/kg in bean oil, observed two weeks. The data set is classed as in vivo. How it is done:
as §2, §3

Converted amounts (≈) assume the structure as drawn. “Also recorded” adds a separate entry of the source.

Regarding `Cc1nc(C)c(COC(=O)CC[C@@H](C)C2CCC3C4CCC5C[C@H](O)CCC5(C)C4C[C@H](O)C32C)nc1C` (stereo partly drawn) [Compound 5, 3 α,12α-Dihydroxy-5β-dholanic acid-3,5,6-trimethylpyrazin-2-methyl ester], the 50% inhibitory concentration (IC50) in data set [1] was found to be 8.01 µg/mL (≈ 15.2 µM); in data set [2] it was 6.69 µg/mL (≈ 12.7 µM); in data set [3] it was 7.43 µg/mL (≈ 14.1 µM); in data set [4], 6.66 µg/mL (≈ 12.6 µM); in data set [5], 6.62 µg/mL (≈ 12.6 µM). The “Number of microvessels on CAM, treatment (mean ± s)” value was found to be 4.8 ± 3.71 in data set [6] (dose 10 μg/egg) and 7.5 ± 3.40 in data set [6] (dose 40 μg/egg). Also, in data set [6] (doses of 10 μg/egg and 40 μg/egg), the “Anti-angiogenesis effect on CAM (in words)” value is on record as “dramatically block the growth of new vessels”. The compound further came in with a 50% lethal dose (LD50) at 14 days in data set [7] of over 3000 mg/kg. Further, the MTD at 14 days in data set [7] (read-out: Maximum tolerated dose) worked out at 3000 mg/kg. For the same compound, the “Deaths or signs of toxicity” value in the data set with Kunming mice is “no deaths or signs of toxicity observed; also recorded: no toxicity”.

A word on the IC50: it is the point on the concentration scale where inhibition reaches its midpoint. One may read the LD50 as the dose expected to kill half of the subjects tested. Read a high LD50 as a less toxic substance.
